In patent US20260076923A1, “METHOD AND COMPOSITION TO REDUCE OR INHIBIT ADVANCED GLYCATION END-PRODUCTS” (NANJING NUTRABUILDING BIO-TECH CO., LTD., priority 2023, published 2026):

What was measured:
SOD = SOD activity in skin of D-galactose-injected mice; type: in vivo, Kunming mice; conditions: end of the trial (14th week), 100 mg/kg each s.c. once daily for 6 weeks, compared to non-supplementation group, FIG. 5
Method: (§1) Six-week-old, male, Kunming mice (n=40), weighed about 30±2 g, were obtained from Cavens Lab Animal (Changzhou, China) and housed in a controlled room (25±2° C., 60% relative humidity, 12 h light/dark cycle) with free access to water and standard laboratory diet. After an acclimation period (1 week), mice were randomly divided into four groups. Each mouse's back skin was chosen as the experimental observation area, a razor was used to shave off the back hair. 5% sodium sulfide solution was applied to the back to remove the hair.
(§2) All mice were then injected subcutaneously with same volume of D-galactose (1000 mg/kg), once a day for 8 weeks. During the entire experiment, the daily food intake and weight of each mouse were recorded every day, and the D-galactose injection dose were adjusted according to the weight change.
(§3) The four groups were non-supplement group (Con, Group 1); THC supplement group (100 mg/kg, Group 2); EGT supplement group (100 mg/kg, Group 3); and EGT+THC supplement group (100 mg/kg EGT+100 mg/kg THC, Group 4). Mice in groups 2-4 were injected subcutaneously (s.c.) into their back skins with the corresponding concentration before each major meal once daily for 6 weeks. […]
(§4) Oxidative stress is increased during aging. […] The levels of H2O2, SOD, CAT, GSH, and GSH-Px in the skin were detected with relative kits as reference. […]

GSH = GSH activity in skin of D-galactose-injected mice; type: in vivo, Kunming mice; conditions: end of the trial (14th week), 100 mg/kg each s.c. once daily for 6 weeks, compared to non-supplementation group, FIG. 7
Method: as §1, §2, §3, §4

GSH-Px = GSH-Px activity in skin of D-galactose-injected mice; type: in vivo, Kunming mice; conditions: end of the trial (14th week), 100 mg/kg each s.c. once daily for 6 weeks, compared to non-supplementation group, FIG. 8
Method: as §1, §2, §3, §4

CAT = CAT activity in skin of D-galactose-injected mice; type: in vivo, Kunming mice; conditions: end of the trial (14th week), 100 mg/kg each s.c. once daily for 6 weeks, compared to non-supplementation group, FIG. 6
Method: as §1, §2, §3, §4

AGEs = assay: Measurement of glycation: BSA incubated with D-ribose, fluorescence of the AGEs; type: biochemical, bovine; conditions: BSA 1 mg/ml + D-ribose 10 mM in PBS, 37° C., 10 days; THC 10 mM and/or EGT 10 mM; λex=380 nm, λem=450 nm; FIG. 1
Method: The formulation of glycation products was observed placing together a bovine serum albumin (BSA) and D-ribose in the absence of THC and EGT, and in the presence of THC only, EGT only and THC and EGT combination.
Specifically, a solution of BSA at a concentration of 1 mg/ml dissolved in phosphate-buffered saline (PBS) was incubated at 37° C. for 10 days with D-ribose at a concentration of 10 mM, in the absence of THC and EGT (Group 1), and the presence of THC only (10 mM, Group 2), EGT only (10 mM, Group 3) and the THC (10 mM) and EGT (10 mM) combination (Group 4).
So, the glycation was evaluated by measuring the fluorescence of the AGEs at λem=450 nm emitted by each sample after excitation at λex=380 nm. The inhibition of glycation was visualized by the decrease in fluorescence compared with the samples treated with the sugar alone.

For `C[N+](C)(C)[C@@H](Cc1c[nH]c(=S)[nH]1)C(=O)[O-]` [EGT, ergothioneine], the SOD activity (SOD) was “significantly improved”, the GSH activity (GSH) was “significantly improved” and the GSH-Px activity (GSH-Px) was “significantly improved”. For the same molecule, the CAT activity (CAT) was “significantly improved” and the “percentage inhibition of fluorescence of the AGEs relative to the control (anti-glycation activity)” value (AGEs) was “fabulous anti-glycation activity”.
